Read-outs that look alike come from different tables or passages of the source.
Tested on: IL1b release THP-1
Assay: IL1b release THP-1 (ELISA)
Type: cell-based
Details: Homo sapiens
Procedure: Example A. Primary Assays Used to Determine IL1b Release THP-1 (ELISA)
• Microbiological safety cabinet, classII (NuAire, USA) • CO2 incubator (VWR Science, USA) • Countess Automated Cell Counter (Invitrogen, USA, cat. number C10227) • Centrifuge CM 6M (Elmi, Latvia) • Serological pipettes 2, 5, 10, 25, 50, 100 ml sterile (Santa Cruz Biotechnology, Inc., USA, sc-200277, sc-200279, sc-200281, sc-200283, Sc-213234, sc-516777) • Single and multichannel pipettes 0.2-10 μL, 50-1200 μL (Eppendorf AG-Hamburg, Germany) • 50 mL PP sterile tubes (Greiner, cat. Number 210261).
• RPMI-1640 (PanEco, C330) • Sodium pyruvate (Paneco, cat. number Φ023) • Non-Essential amino acids 50× (Paneco, Φ116) • Essential amino acids 50× (Paneco, Φ115/50) • FBS (Hyclone Laboratories Inc, USA, SV30160.03) • Antibiotic-antimycotic (Gibco, USA, 15240-062) • 2-mercaptoethanol 1000×55 mM (Gibco, USA, 21985-023) • LPS-EB ultrapure (invivogen, cat. number tlrl-3pelps) • Nigericin (Sigma, cat. number N7143) • ELISA kit, IL-1beta (Cat #A-8766, Interleukin-1 beta-EIA-BEST, Vector Best). LPS Preparation (5 mg/ml): • 1. Add 1 ml of endotoxin-free water according manufacturer's protocol • 2. Vortex until complete solubilization • 3. Aliquote and store at […] for long term storage.
• 1. Add methanol to 10 mg of powder to produce the 10 mM Nigericin solution • 2. Vortex until complete solubilization • 3. Store at 4° C.
THP-1 cells were propagated in RPMI-1640 (10% FBS, Antibiotic-antimycotic 1×, non-Essential amino acids 1×, Essential amino acids 1×, Sodium pyruvate 2×, 2-mercaptoethanol 0.05 mM) at 37° C. and at 5% CO2 in an incubator.
• 1. THP-1 cells were spined at 100 g for 5 min in 50 ml tube. • 2. THP-1 cells were resuspended in warm culture medium (w/o FBS, w/o Antibiotic-antimycotic, non-Essential amino acids 1×, Essential amino acids 1×, Sodium pyruvate 2×) to the concentration 1,3×10^6 cells. • 3. THP-1 cells were primed in tube with 1 μg/ml of LPS for 4 h at 37° C. and at 5% CO2 in an incubator. • 4. THP-1 cells were stimulated with 10 μM of Nigericin (Cat #N7143-10 MG, Sigma Aldrich) for 2 h at 37° C. and at 5% CO2 in an incubator. • 5. After the full activation, the supernatant was collected and the levels of IL-1β were assessed via ELISA according manufacturer instructions (Cat #A-8766, Vector Best).
The average EC50 values are shown in Table A, wherein “A” corresponds to EC50: A≤0.5 μM, “B” corresponds to 0.5 μM<EC50≤1.0 μM, “C” 1.0 μM<EC50≤5.0 μM, “D” corresponds to 5.0 μM<EC50≤30 μM and “E” corresponds to EC50>30 μM.

[1] = THP-1, read-out: THP 1 IL 1b, EC50, μM
[2] = average EC50, THP-1 cells primed with 1 μg/ml LPS 4 h, stimulated with 10 μM Nigericin 2 h, IL-1β in supernatant by ELISA, read-out: THP 1 IL 1b, EC50

Compound | EC50 [2] | EC50 [1]
Cc1cc(-c2ccc(C(F)(F)F)cc2NS(C)(=O)=O)nnc1N[C@@H]1CCCN(C2CCCCC2)C1 [Compound 32, (R)—N-(2-(6-((1-Cyclohexylpiperidin-3-yl)amino)-5-methylpyridazin-3-yl)-5-(trifluoromethyl)phenyl) methanesulfonamide] |  | < 0.5 µM
Cc1cc(N[C@@H]2CCCN(C3CCCC3)C2)nnc1-c1ccc(C(F)(F)F)cc1NS(C)(=O)=O [Compound 33] | < 0.5 µM | 
CCC(C)N1CCC[C@@H](Nc2cc(C)c(-c3ccc(C(F)(F)F)cc3NS(C)(=O)=O)nn2)C1 (stereo partly drawn) [Compound 35, N-(2-(6-(((3R)-1-(sec-Butyl)piperidin-3-yl)amino)-4-methylpyridazin-3-yl)-5-(trifluoromethyl)phenyl) methanesulfonamide] |  | < 0.5 µM
Cc1cc(-c2ccc(C(F)(F)F)cc2NS(C)(=O)=O)nnc1N[C@@H]1CCCN(C2CCOCC2)C1 [Compound 38, (R)—N-(2-(5-Methyl-6-((1-(tetrahydro-2H-pyran-4-yl)piperidin-3-yl)amino)pyridazin-3-yl)-5-(trifluoromethyl)phenyl) methanesulfonamide] | < 0.5 µM | 
Cc1cc(N[C@@H]2CCCN(C3CCOCC3)C2)nnc1-c1ccc(C(F)(F)F)cc1NS(C)(=O)=O [Compound 39] | < 0.5 µM | 
Cc1cc(N[C@@H]2CCCN(C3CCCCC3)C2)nnc1-c1ccc(C(F)(F)F)cc1NS(C)(=O)=O [Compound 41, N-[2-[6-[[(3R)-1-cyclohexyl-3-piperidyl]amino]-4-methyl-pyridazin-3-yl]-5-(trifluoromethyl)phenyl]methanesulfon-amide] | < 0.5 µM | 
CCN1CCC[C@@H](Nc2cc(C3CC3)c(-c3ccc(C(F)(F)F)cc3NS(C)(=O)=O)nn2)C1 [Compound 43, (R)—N-(2-(4-Cyclopropyl-6-((1-ethylpiperidin-3-yl)amino)pyridazin-3-yl)-5-(trifluoromethyl)phenyl) methanesulfonamide] | < 0.5 µM | 
CCN1CCC[C@@H](Nc2nnc(-c3ccc(C(F)(F)F)cc3NS(C)(=O)=O)cc2C(F)(F)F)C1 [Compound 45, N-[2-[6-[[(3R)-1-ethyl-3-piperidyl]amino]-5-(trifluoromethyl)pyridazin-3-yl]-5-(trifluoromethyl)phenyl]methanesulfon-amide] | 0.5 to 1 µM | 
CCN1CCC[C@@H](Nc2cc(C(F)(F)F)c(-c3ccc(C(F)(F)F)cc3NS(C)(=O)=O)nn2)C1 [Compound 49, N-[2-[6-[[(3R)-1-ethyl-3-piperidyl]amino]-4-(trifluoromethyl)pyridazin-3-yl]-5-(trifluoromethyl)phenyl]methanesulfon-amide] | 1 to 5 µM | 
CN1CCC[C@@H](Nc2nnc(-c3ccc(C(F)(F)F)cc3NS(C)(=O)=O)cc2C(F)(F)F)C1 [Compound 52, N-[2-[6-[[(3R)-1-methyl-3-piperidyl]amino]-5-(trifluoromethyl)pyridazin-3-yl]-5-(trifluoromethyl)phenyl]methanesulfon-amide] | 1 to 5 µM | 
COC(C)(C)CCN1CCC[C@@H](Nc2cc(C)c(-c3ccc(C(F)(F)F)cc3NS(C)(=O)=O)nn2)C1 [Compound 53, N-[2-[6-[[(3R)-1-(3-methoxy-3-methyl-butyl)-3-piperidyl]amino]-4-methyl-pyridazin-3-yl]-5-(trifluoromethyl)phenyl]methanesulfon-amide] | 1 to 5 µM | 
CCN1CCC[C@@H](Nc2nnc(-c3ccc(C(F)(F)F)cc3NS(=O)(=O)CC)cc2C)C1 [Compound 62, (R)—N-(2-(6-((1-Ethylpiperidin-3-yl)amino)-5-methylpyridazin-3-yl)-5-(trifluoromethyl)phenyl) ethanesulfonamide] | < 0.5 µM | 

The next lines start with results.

EC50 [2] | Compound | EC50 [1]
< 0.5 µM | Cc1cc(N[C@@H]2CCCN(C3CCC3)C2)nnc1-c1ccc(C(F)(F)F)cc1NS(C)(=O)=O [Compound 34] | 
< 0.5 µM | Cc1cc(N[C@@H]2CCCN(C3CC3)C2)nnc1-c1ccc(C(F)(F)F)cc1NS(C)(=O)=O [Compound 36, N-[2-[6-[[(3R)-1-cyclopropyl-3-piperidyl]amino]-4-methyl-pyridazin-3-yl]-5-(trifluoromethyl)phenyl]methanesulfon-amide] | 
< 0.5 µM | CCN1CCC[C@@H](Nc2nnc(-c3ccc(C(F)(F)F)cc3NS(C)(=O)=O)c3c2CCCC3)C1 [Compound 37, (R)—N-(2-(4-((1-Ethylpiperidin-3-yl)amino)-5,6,7,8-tetrahydrophthalazin-1-yl)-5-(trifluoromethyl)phenyl) methane sulfonamide] | 
< 0.5 µM | Cc1cc(N[C@@H]2CCCN(CC3CCCCC3)C2)nnc1-c1ccc(C(F)(F)F)cc1NS(C)(=O)=O [Compound 40, N-[2-[6-[[(3R)-1-(cyclohexylmethyl)-3-piperidyl]amino]-4-methyl-pyridazin-3-yl]-5-(trifluoromethyl)phenyl]methanesulfon-amide] | 
< 0.5 µM | Cc1cc(-c2ccc(C(F)(F)F)cc2NS(C)(=O)=O)nnc1N[C@@H]1CCCN(C2CC2)C1 [Compound 42, (R)—N-(2-(6-((1-Cyclopropylpiperidin-3-yl)amino)-5-methylpyridazin-3-yl)-5-(trifluoromethyl)phenyl) methanesulfonamide] | 
0.5 to 1 µM | Cc1cc(N[C@@H]2CCCN(Cc3ccccc3)C2)nnc1-c1ccc(C(F)(F)F)cc1NS(C)(=O)=O [Compound 44, N-[2-[6-[[(3R)-1-benzyl-3-piperidyl]amino]-4-methyl-pyridazin-3-yl]-5-(trifluoromethyl)phenyl]methanesulfon-amide] | 
0.5 to 1 µM | Cc1cc(N[C@@H]2CCCN(CC(C)C)C2)nnc1-c1ccc(C(F)(F)F)cc1NS(C)(=O)=O [Compound 46, (R)—N-(2-(6-((1-Isobutylpiperidin-3-yl)amino)-4-methylpyridazin-3-yl)-5-(trifluoromethyl)phenyl) methanesulfonamide] | 
0.5 to 1 µM | Cc1cc(N[C@@H]2CCCN(CC(C)(C)O)C2)nnc1-c1ccc(C(F)(F)F)cc1NS(C)(=O)=O [Compound 47] | 
0.5 to 1 µM | CC(C)=CCN1CCC[C@@H](Nc2cc(C)c(-c3ccc(C(F)(F)F)cc3NS(C)(=O)=O)nn2)C1 [Compound 48, (R)—N-(2-(4-Methyl-6-((1-(3-methylbut-2-en-1-yl)piperidin-3-yl)amino)pyridazin-3-yl)-5-(trifluoromethyl)phenyl) methanesulfonamide] | 
1 to 5 µM | CN1CCC[C@@H](Nc2nnc(-c3ccc(C(F)(F)F)cc3NS(C)(=O)=O)c3c2CCCC3)C1 [Compound 50, (R)—N-(2-(4-((1-Methylpiperidin-3-yl)amino)-5,6,7,8-tetrahydrophthalazin-1-yl)-5-(trifluoromethyl)phenyl) methane sulfonamide] | 
1 to 5 µM | CN1CCC[C@@H](Nc2cc(C(F)(F)F)c(-c3ccc(C(F)(F)F)cc3NS(C)(=O)=O)nn2)C1 [Compound 51, N-[2-[6-[[(3R)-1-methyl-3-piperidyl]amino]-4-(trifluoromethyl)pyridazin-3-yl]-5-(trifluoromethyl)phenyl]methanesulfon-amide] | 
5 to 30 µM | CN1CCC[C@@H](Nc2nnc(-c3ccc(C(F)(F)F)cc3NS(C)(=O)=O)c3c2C2CCC3CC2)C1 [Compound 54, N-[2-[6-[[(3R)-1-methyl-3-piperidyl]amino]-4,5-diazatricyclo[6.2.2.02,7]dodeca-2(7),3,5-trien-3-yl]-5-(trifluoromethyl)phenyl]methanesulfon-amide] | 
1 to 5 µM | Cc1cc(N[C@@H]2CCCN(CCC(C)(C)O)C2)nnc1-c1ccc(C(F)(F)F)cc1NS(C)(=O)=O [Compound 55, (R)—N-(2-(6-((1-(3-Hydroxy-3-methylbutyl)piperidin-3-yl)amino)-4-methylpyridazin-3-yl)-5-(trifluoromethyl)phenyl) methanesulfonamide] | 
1 to 5 µM | COCCN1CCC[C@@H](Nc2cc(C)c(-c3ccc(C(F)(F)F)cc3NS(C)(=O)=O)nn2)C1 [Compound 56, (R)—N-(2-(6-((1-(2-Methoxyethyl)piperidin-3-yl)amino)-4-methylpyridazin-3-yl)-5-(trifluoromethyl)phenyl) methanesulfonamide] | 

From patent publication US20260234123A1, “Inhibitors of NLRP3” (Mwyngil Therapeutics, Inc., priority 2023, published 2026)
